Experimental data: patent US20030003491A1, “Method for detecting or quantifying environmental hormones” (priority 2000, published 2003)

System: LH receptor (LH-R) mRNA expression in rat granulosa cells
Test: Microassay for dioxins using FSH-induced LH-R mRNA expression in rat granulosa cells (Northern blotting, densitometry)
Format: cell-based
Conditions: for amount of LH-R mRNA expressed relative to that without TCDD addition: normalised to GAPDH mRNA, N=3
Method: Rat granulosa cells were obtained from a juvenile female Wistar rat (purchased from Charles River Laboratories, Inc.) which had been injected with 2 mg of diethylstilbestrol (produced by Sigma Chemical Co.) dissolved in 0.1 ml of sesame oil once per day for 4 days. Specifically, the ovary of the juvenile female Wistar rat was removed and a hole was made in its follicle with a 25-gauge needle to take out granulosa cells. During this series of operations, the rat was treated according to the NIH guidelines (Biosafety in microbiological and biomedical laboratories). Then, the obtained granulosa cells were washed and centrifuged to collect them. The viability of the cells was determined by the known trypan blue exclusion method.
The obtained granulosa cells (viability: over 90%) were cultured in Ham's F-12/DME (1:1 vol/vol) (produced by Gibco Laboratories) containing 1.1 g/l NaHCO3, 40 mg/l gentamicin sulfate (produced by Sigma Chemical Co.), 1 mg/l Fungizone (produced by Gibco Laboratories) and 100 mg/l bovine serum albumin (BSA) on a collagen-coated plate in a moist atmosphere (5% CO2, 95% air) at 37° C. [Nakamura, M., et al., Endocrinology, 133, 538-544 (1993)]. The granulosa cells obtained by the culturing were used in Examples.
The rat granulosa cells obtained in Reference Example 1 (5×10^6 living cells) were cultured in 5 ml of a serum-free medium [Ham's F-12/DME (1:1 vol/vol)] on a plate of 60 mm diameter for 24 hours, and the resulting culture was allowed to stand separately in the presence of 30 ng/ml rat FSH (I-8) [obtained from National Hormone and Pituitary Distribution Program (Bethesda Md.)] and in the presence of FSH (30 ng/ml) and 2,3,7,8-tetrachlorodibenzop-dioxin (TCDD) [Sigma Chemical Co.] (1, 10 and 100 pmol/l). TCDD was used after being dissolved in dimethyl sulfoxide.
After culturing was stopped 24, 48 and 72 hours later, RNAs formed in the cells were extracted to obtain pellets of the RNA mixture according to the AGTC method [trade name: Isogen, produced by Nippon Gene Co., Ltd., Chomezynski, P. and Sacchi, N., Anal. Biochem., 162, 156-159 (1987)]. To inhibit RNase, 15 μg of the obtained pellets was dissolved in diethyl-pyrocarbonate-treated water. The resulting solution was subjected to denatured agarose gel electrophoresis and the RNAs were transferred to a nylon membrane (trade name: Biodyne, produced by ICN) to carry out Northern blotting analysis. A film (trade name: Kodak X-Omat, produced by Eastman Kodak Co.) was exposed to the nylon membrane according to the standard manual of a nucleic acid detection kit (produced by Boehringer Mannheim) for fluorescence detection using 2202 UnitroScan Laser Densitometer (produced by LKB Co., Ltd.) to determine the mRNAs.
Rat LH-R mRNA was prepared according to the description in Mol. Cell. Endocrinol., 82, 259-263 (1991). The obtained rat […] into the EcoRI site of Bluescript ks (+) vector, followed by subcloning and linearization with BglII [Nakamura, K., Nakamura, M., Igarashi, S., Miyamoto, K., Eto, Y., Ibuki, Y., and Minegishi, T., Endocrinology, 134, 2329-2335 (1994)]. Then, digoxigenin-labeled LH-R cRNA corresponding to nucleotide numbers 440 to 2560 of the rat LH-R mRNA was prepared by in vitro transcription using T3 RNA polymerase and an RNA-labeling kit.
Each of the rat LH-R mRNAs (5.4 kb) obtained in the above (1) was determined according to the luminescence intensity method. The luminescence intensity was measured with LKB 2202 UnitroScan Laser Densitometer (produced by LKB Co., Ltd.) using the probe prepared in the above (2).
The amount of each rat LH-R mRNA expressed was determined using the amount of GAPDH (glyceraldehyde 3-phosphate dehydrogenase) mRNA expressed as a reference value to obtain the relative value (%) based on the control [addition of only FSH (30 ng/ml)]. The data were expressed in terms of […] of the values obtained by carrying out culturing three times under the same conditions. […]

Clc1cc2c(cc1Cl)Oc1cc(Cl)c(Cl)cc1O2 [TCDD, 2,3,7,8-tetrachlorodibenzop-dioxin]
expression of LH-R mRNA (Northern blotting) (1 pmol/l TCDD plus FSH 30 ng/ml, 48 hours): a little decrease
expression of LH-R mRNA (Northern blotting) (10 pmol/l TCDD plus FSH 30 ng/ml, 48 hours): clearly inhibited
amount of expressed LH-R mRNA versus FSH alone (Northern blotting) (10 pmol/l TCDD plus FSH 30 ng/ml, after 24 hours of standing): difference in the amount of expressed LH-R mRNA already appeared
amount of LH-R mRNA expressed relative to that without TCDD addition (10 pmol/l TCDD plus FSH 30 ng/ml, after 24 hours): less than 50%
amount of LH-R mRNA expressed relative to that without TCDD addition (10 pmol/l TCDD plus FSH 30 ng/ml, after 48 hours): less than 50%
amount of LH-R mRNA expressed relative to that without TCDD addition (10 pmol/l TCDD plus FSH 30 ng/ml, after 72 hours): less than 50%
concentration dependency of LH-R mRNA expression (densitometer) (1, 10, 100 pmol/l TCDD plus FSH 30 ng/ml, 48 hours): decreased in a manner dependent upon the amount of TCDD added
